The record followed here is article PMC9196953 (Drug development research, 1999).

Broadly, the Ki is a measure of affinity in units of concentration, obtained from inhibition or displacement.

Structures are written as SMILES. Like-named read-outs stand apart in the source and are kept apart here.

Assay [1] has as its target T1, rat A2A receptors (Rattus norvegicus, UniProt P30543).
T1 construct: to A2A receptors from rat striatal membranes; from tissue; host or cells: rat striatal membranes
The assay can be described thus: Displacement of [3H]CGS 21680 binding to A2A receptors in rat striatal membranes. Particulars: for Ki: read-out: Ki rA2A. Here is the method: (§1) All nonradioactive compounds were initially dissolved in DMSO and diluted with buffer to the final concentration, where the amount of DMSO never exceeded 2%. Incubations were terminated by rapid filtration over Whatman GF/B filters using a Brandell cell harvester. The tubes were rinsed three times with 3 mL buffer each.
(§2) At least six different concentrations of competitor, spanning 3 orders of magnitude adjusted appropriately for the IC50 value of each compound, were used. IC50 values, calculated with the nonlinear regression method implemented in Graph-Pad Prism (San Diego, CA) were converted to apparent Ki values as described by [Linden [1982]]. Hill coefficients of the tested compounds were in the range of 0.8–1.1.
(§3) At A2B receptors, two radioligand binding assays (Table 1) were used. Ki values of xanthine derivatives were determined in displacement of binding of the non-selective radioligands […], 8 (4-(2-[7-amino-2-{furyl}{1,2,4}triazolo{2,3-a}{1,3,5}tr nzyl)-8-phenyloxyacetate-1-propyl-xanthine), at human A2B receptors expressed in HEK-293 cell membranes [[Linden and Jacobson, 1998]]. In order to evaluate selectivity, selected derivatives were subjected to standard binding assays at A1, A2A, and A3 receptors. The initial screening utilized rat brain A1/A2A receptors (with radioligands [^3H]R-PIA and [^3H]CGS-21680), and selected compounds were examined at the recombinant human subtypes (Table 1), using [^3H]CPX ([^3H]8-cyclopentyl-1,3-dipropylxanthine) and ^125I-ZM 241385, ^125I-4-(2-[7-amino-2-[2-furyl][1,2,4]triazolo[2,3-a][1,3,5]triazin-5-yl-amino]ethyl)phenol) [[Palmer et al., 1996]].
(Loss of bound radioactivity is the signal in a displacement assay; it reports binding, not function.)

For assay [2], the target named is T2, human A2B receptors (Homo sapiens, UniProt P29275).
T2 construct: expressed in transfected cells; host or cells: HEK-293
T2 sequence (P29275 1-332): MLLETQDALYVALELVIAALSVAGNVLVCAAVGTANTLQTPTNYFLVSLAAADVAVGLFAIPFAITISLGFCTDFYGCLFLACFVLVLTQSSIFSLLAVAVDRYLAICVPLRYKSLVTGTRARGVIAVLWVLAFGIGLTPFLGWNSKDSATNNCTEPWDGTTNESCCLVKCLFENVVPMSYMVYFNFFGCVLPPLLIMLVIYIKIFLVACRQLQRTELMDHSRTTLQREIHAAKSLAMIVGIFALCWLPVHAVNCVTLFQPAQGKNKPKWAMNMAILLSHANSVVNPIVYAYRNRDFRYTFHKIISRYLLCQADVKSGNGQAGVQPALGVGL
The assay can be described thus: Binding at human A2B receptors expressed in HEK-293 cells vs [3H]ZM241385. Particulars: for rA1/hA2B: ratio of Ki rat A1 to Ki human A2B. The method, then: The plasmid was amplified in competent JM109 cells and plasmid DNA isolated using Wizard Megaprep columns (Promega Corp., Madison, WI).
Colonies were selected by growth of cells in 0.6 mg/mL G418. Transfected cells were maintained in DMEM supplemented with Hams F12 nutrient mixture (1/1), 10% newborn calf serum, 2 mM glutamine, and containing 50 IU/mL penicillin, 50 μg/mL streptomycin, and 0.2 mg/mL Geneticin (G418, Boehringer Mannheim, Indianapolis, IN).
Confluent monolayers of HEK-A2B cells were washed with PBS followed by ice-cold Buffer A (10 mM HEPES, 10 mM EDTA, pH 7.4) with protease inhibitors ([…] benzamidine, […], and […] of each aprotinin, pepstatin, and leupeptin). The cells were homogenized in a Polytron (Brinkmann) for 20 sec, centrifuged at 30,000g, and the pellets washed twice with buffer HE (10 mM HEPES, 1 mM EDTA, pH 7.4 with protease inhibitors). The final pellet was resuspended in buffer HE, supplemented with 10% sucrose and frozen in aliquots at −80°C. For binding assays, membranes were thawed and diluted 5–10-fold with HE to a final protein concentration of approximately 1 mg/mL. […] After incubating for 20 min at room temperature, 50 mL of 10 mg/mL Na-metabisulfite in water was added the quench the reaction. The reaction products were applied to a C18 HPLC column using 4 mM phosphate, pH 6.0/methanol. […] The incubation time was 3 h at 21°C. […] Membranes were filtered on Whatman GF/C filters using a Brandell cell harvester (Gaithersburg, MD) and washed three times over 15–20 sec with ice-cold buffer (10 mM Tris, 1 mM MgCl2, pH 7.4). […] Data from replicate experiments are tabulated as means ± SEM.
At A2B receptors, two radioligand binding assays (Table 1) were used. […] In order to evaluate selectivity, selected derivatives were subjected to standard binding assays at A1, A2A, and A3 receptors.

Assay [3] concerns the target T3, human A3 receptors (Homo sapiens, UniProt P0DMS8).
T3 construct: expressed in transfected cells; host or cells: HEK-293
T3 sequence (P0DMS8 1-318): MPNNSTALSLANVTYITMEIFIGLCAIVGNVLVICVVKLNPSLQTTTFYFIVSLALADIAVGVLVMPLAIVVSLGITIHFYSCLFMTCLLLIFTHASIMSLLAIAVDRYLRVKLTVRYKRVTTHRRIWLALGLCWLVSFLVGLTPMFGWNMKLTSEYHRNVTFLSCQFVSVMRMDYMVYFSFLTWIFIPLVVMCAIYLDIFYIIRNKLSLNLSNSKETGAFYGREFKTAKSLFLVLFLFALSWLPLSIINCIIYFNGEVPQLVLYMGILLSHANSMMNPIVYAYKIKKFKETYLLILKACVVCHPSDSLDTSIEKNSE
The assay can be described thus: Binding at recombinant human A3 receptors expressed in HEK-293 cells vs [125I]ABA. Particulars: recombinant human A3 in HEK-293 cells, read-out: Ki hA3. Here is the method: as §1, §2, §3

Where [4] appears, read: HEK-293 cells, vs [3H]ZM241385, read-out: Ki hA2B.

T1 sequence (P30543 whole entry): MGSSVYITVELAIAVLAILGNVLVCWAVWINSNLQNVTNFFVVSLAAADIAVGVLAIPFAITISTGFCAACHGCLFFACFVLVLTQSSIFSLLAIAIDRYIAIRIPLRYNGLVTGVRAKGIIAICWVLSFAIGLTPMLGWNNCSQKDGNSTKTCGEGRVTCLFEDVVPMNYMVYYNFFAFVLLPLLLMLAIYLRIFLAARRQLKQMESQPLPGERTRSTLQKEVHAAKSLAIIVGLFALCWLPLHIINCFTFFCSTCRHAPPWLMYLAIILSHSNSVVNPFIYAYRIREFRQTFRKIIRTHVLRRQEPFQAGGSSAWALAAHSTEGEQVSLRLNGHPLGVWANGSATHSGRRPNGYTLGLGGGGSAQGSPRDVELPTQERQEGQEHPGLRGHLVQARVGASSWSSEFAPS

Turning to `CCCn1c(=O)c2[nH]c(-c3ccc(OCC(=O)OCC)cc3)nc2n(CCC)c1=O` [Compound 4b], the Ki was 0.128 ± 0.015 µM in assay [1], 0.0187 ± 0.0005 µM in assay [2] (setting [4]) and 0.0485 ± 0.0008 µM in assay [3]. In addition, in assay [2], the rA1/hA2B was 2.8.
For `CCCn1c(=O)c2[nH]c(-c3ccc(OCC(=O)NNC(C)=O)cc3)nc2n(CCC)c1=O` [Compound 4e, 8-[4-[(Carboxymethyl)oxy]phenyl]-1,3-di-(n-propyl)xanthine N-Acetylhydrazide] the same measures were 0.227 ± 0.064 µM, 0.0654 ± 0.0065 µM, 0.0309 ± 0.0082 µM and 0.10.
`CCCn1c(=O)c2[nH]c(-c3ccc(OCC(=O)NNC(=O)CCC(=O)O)cc3)nc2n(CCC)c1=O` [Compound 9, 8-[4-[(Carboxymethyl)oxy]phenyl]-1,3-di-(n-propyl)xanthine N-[(3-Carboxy)-n-propionyl]hydrazide]: the Ki in assay [1] was 0.174 ± 0.032 µM; in assay [2] (setting [4]) it was 0.116 ± 0.01 µM; in assay [3], 0.173 ± 0.027 µM.
As to `CCCn1c(=O)c2[nH]c(-c3ccc(OCC(=O)NN4C(=O)C(C)=C(C)C4=O)cc3)nc2n(CCC)c1=O` [Compound 14, 8-[4-[(Carboxymethyl)oxy]phenyl]-1,3-di-(n-propyl)xanthine N,N-[(1,2-Dimethyl)maleyl]hydrazide], the Ki was 0.126 ± 0.041 µM in assay [1]; 0.0194 ± 0.0062 µM in assay [2] (setting [4]); 0.019 µM in assay [2] (rounded values given in text, read-out: Ki at human A2B receptors); 0.67 ± 0.154 µM in assay [3]. Also, in assay [2] (human A2B vs human A1), the “selectivity for human A2B vs. human A1 receptors” value is recorded as 160 fold. Besides, the “selectivity for human A2B vs. human A2A receptors” value in assay [2] (human A2B vs human A2A) came out at 100 fold. Also, the “selectivity for human A2B vs. human A3 receptors” value in assay [2] (human A2B vs human A3) came out at 35 fold. In addition, in assay [2], the rA1/hA2B turned out to be 0.57.
For the compound `CCCn1c(=O)c2[nH]c(-c3ccc(OCC(=O)NN4C(=O)c5ccccc5C4=O)cc3)nc2n(CCC)c1=O` [Compound 21, 8-[4-[(Carboxymethyl)oxy]phenyl]-1,3-di-(n-propyl)xanthine N,N-Phthaloylhydrazide], the Ki is 0.392 ± 0.117 µM in assay [1], 0.0644 ± 0.0008 µM in assay [2] (setting [4]) and 0.147 ± 0.021 µM in assay [3]. Further, in assay [2], the rA1/hA2B turned out to be 0.41.
Consider `CCCn1c(=O)[nH]c(=O)c2[nH]c(-c3ccc(OCC(=O)NN4C(=O)C(C)=C(C)C4=O)cc3)nc21` [Compound 15, 8-[4-[(Carboxymethyl)oxy]phenyl]-1H-3-(n-propyl)xanthine N,N-[(1,2-Dimethyl)maleyl]hydrazide], for which, in assay [1] (rat striatal membranes, [3H]CGS 21680, at 10^−4), the “% displacement rA2A” value is 36 ± 4%. The Ki in assay [2] (setting [4]) came out at 1.8 µM; in assay [3], 14.2 µM. Moreover, the rA1/hA2B in assay [2] was 2.0.
